Measurements published in PMC10154249, “Unique progerin C-terminal peptide ameliorates Hutchinson–Gilford progeria syndrome phenotype by rescuing BUBR1” (Nature Aging, 2023).

Tests used:
[1] = test system: progerin–BUBR1 interaction; test: CoIP of progerin and BUBR1 in HEK-293T cells; type: cell-based; conditions: HEK-293T, Flag-progerin, UPCP 6 μM, 12 μM and 18 μM
Protocol: Detailed descriptions of CoIP were described previously[55],[56]. Cells were harvested and washed three times in cold PBS, then lysed in CoIP buffer (25 mM Tris-HCl (pH 7.5), 150 mM KCl, 5 mM EDTA, and 0.5% NP-40) plus protease inhibitor cocktail tablet (Roche). Incubate on ice and shock lysates on the vortex shaker 15 times for 30 s each. Microcentrifuge in 12,000g for 15 min at 4 °C, collect the supernatant, and incubate with 3 μg primary antibodies with gentle shaking overnight at 4 °C, followed by adding 20–40 μl Pure Proteome Protein A/G Mix Magnetic Beads (Millipore, catalog no. […]02) for 3 h. Wash the beads three times with 1 ml CoIP buffer for 8 min each, resuspend in 50 μl 1× loading buffer, and incubate at 100 °C for 8 min. Throw beads away and analyze by immunoblotting.

BUBR1 = target: T1, BUBR1 (Homo sapiens, UniProt O60566); test: Microscale thermophoresis (MST) of UPCP and BUBR1; type: binding; conditions: Fig. 3d
T1 construct: made in house
T1 sequence (O60566 whole entry): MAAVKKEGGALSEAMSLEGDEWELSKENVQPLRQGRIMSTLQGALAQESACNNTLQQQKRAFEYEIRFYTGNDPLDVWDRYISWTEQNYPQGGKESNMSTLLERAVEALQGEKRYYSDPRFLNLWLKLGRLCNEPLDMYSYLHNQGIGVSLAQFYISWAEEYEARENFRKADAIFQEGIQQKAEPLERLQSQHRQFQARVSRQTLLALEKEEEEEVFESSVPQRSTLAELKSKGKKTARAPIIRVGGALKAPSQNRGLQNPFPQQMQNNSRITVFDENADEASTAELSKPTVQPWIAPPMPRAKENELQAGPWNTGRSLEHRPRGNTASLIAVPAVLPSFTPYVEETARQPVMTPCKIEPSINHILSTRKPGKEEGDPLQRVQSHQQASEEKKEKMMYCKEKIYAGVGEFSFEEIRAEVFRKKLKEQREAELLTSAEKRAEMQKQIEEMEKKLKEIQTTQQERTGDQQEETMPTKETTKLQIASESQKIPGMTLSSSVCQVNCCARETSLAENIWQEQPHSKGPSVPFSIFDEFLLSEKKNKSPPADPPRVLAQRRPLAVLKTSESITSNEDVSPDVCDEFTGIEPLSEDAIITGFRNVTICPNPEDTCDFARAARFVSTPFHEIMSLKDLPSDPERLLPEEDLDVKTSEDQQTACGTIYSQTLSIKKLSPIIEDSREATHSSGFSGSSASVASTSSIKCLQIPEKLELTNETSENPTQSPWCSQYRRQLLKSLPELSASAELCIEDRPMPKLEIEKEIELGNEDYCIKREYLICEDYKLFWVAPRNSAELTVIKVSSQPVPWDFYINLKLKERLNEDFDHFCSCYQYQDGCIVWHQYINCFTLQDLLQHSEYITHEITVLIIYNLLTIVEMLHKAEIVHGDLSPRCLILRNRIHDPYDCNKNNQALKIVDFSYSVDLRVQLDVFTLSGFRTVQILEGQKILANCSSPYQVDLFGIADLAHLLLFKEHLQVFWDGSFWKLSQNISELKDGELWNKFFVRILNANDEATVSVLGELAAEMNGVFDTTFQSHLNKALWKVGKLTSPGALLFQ
Protocol: Cells were harvested and lysed in buffer A mixed with protease inhibitor cocktail tablet (Roche) after 48 h. […] The beads were washed three times using 1× Tris saline buffer (50 mM Tris-HCl (pH 7.4) and 150 mM NaCl)) for 8 min each. The bound proteins BUBR1 or PTBP1 were eluted with 3×Flag peptide (ApexBio) for 2 h at 4 °C. Finally, BUBR1 or PTBP1 was concentrated and recovered by using the Centrifugal Filters (Amicon Ultra).
His-UPCP was eluted with Imidazole eluent for 2 h at 4 °C and concentrated and recovered by using centrifugal filters (Amicon Ultra). Flag-BUBR1 or PTBP1 was purified as described in Affinity purification of Flag-tagged protein. The purified protein was diluted with 0.05% Tween-20 in PBS in to an appropriate concentration (His-UPCP: 50 nM, Flag-BUBR1: 25 μM, Flag-PTBP1: 45 μM). Then, His-UPCP was labeled with RED-Tris-NAT according to the manufacturer’s instructions (NanoTemper, MO-L018). Flag-BUBR1 or Flag-PTBP1 was diluted by 16 concentration gradients in turn and mixed with labeled protein (His-UPCP). The capillaries (MST NT115 premium) were loaded and the samples measured on the instrument (NanoTemper Monolith NT.115). Data were analyzed by MO.AffinityAnalysis and curves were drawn using Origin 2019.

PTBP1–BUBR1 mRNA 3′-UTR = test: RIP assay of PTBP1 and BUBR1 mRNA 3′-UTR in HEK-293T cells; type: cell-based; conditions: for PTBP1 enrichment on BUBR1-3'UTR (2-ΔΔCt): Fig. 4n, PTBP1+progerin+UPCP, P=0.0491 vs PTBP1+progerin
Protocol: RIP and RNA pulldown assays were performed as previously described. The RIP experiment was carried out using the EZ-Magna RIP Kit (Millipore, catalog no. 17-701). The coprecipitated RNAs were extracted through Trizol reagent and detected by RT-PCR. The primer sequences for PCR, synthesized by Comate Bioscience, were as follows:
BUBR1-3′UTR_fwd (5′-[…]-3′) and BUBR1-3′UTR_rev (5′- […]-3′).

[2] = test system: BUBR1 kinetochore localization in H1299 cells; test: Immunofluorescence, abnormal localization of BUBR1 in H1299 cells; type: cell-based; conditions: for Relative percentage of the number of abnormal localization cells of BUBR1: Fig. 3h, H1299, progerin+UPCP, P=0.0202 vs progerin
Protocol: Immunofluorescence was performed as described previously. Cells were plated on cover slips in 12-well plates, left overnight before the treatment. Cells were fixed in 1% formaldehyde in culture medium for 10 min at 37 °C and permeabilized with 0.2% Triton X-100 in PBS for 10 min at room temperature. Cells were washed twice in PBS and blocked for 1 h with 5% BSA in PBS and then incubated with primary antibodies at 4 °C overnight, washed three times in PBS and incubated with secondary antibodies for 1 h at room temperature. Cell nuclei were counterstained with a 500 nM concentration of 4,6-diamidino-2-phenylindole (DAPI) (Sigma). Images were acquired by a fluorescence microscope (OLYMPUS FV-1000, Carl Zeiss LSM880 or Leica DMi8) and analyzed with software NIS-Elements AR v.5.0.1 (Nikon), FLUOVIEW v.4.2b (OLYMPUS), ZEN v.2.3 SP1 (Carl Zeiss) and Leica Application Suite X v.3.6.0.24 (Leica). Cells were quantified by investigators who were blinded to the identity of the analyzed cell.

## H-YGRKKRRQRRRYNLRSRTVLCGTCGQPADKASASGSGAQSPQNCSIM-OH (cysteines drawn unpaired) [UPCP, unique progerin C-terminal peptide]
[1]
  interaction between progerin and BUBR1: interfered with the interaction between progerin and BUBR1
BUBR1; Dose 3.125e-6, Err-Value 0.164542
  Dose Response Curve, Response: 928.56
BUBR1; Dose 6.25e-6, Err-Value 0.285623
  Dose Response Curve, Response: 930.678
BUBR1; Dose 1.25e-5, Err-Value 0.150599
  Dose Response Curve, Response: 932.492
BUBR1; Dose 1.22E-08, Err-Value 0.206069
  Dose Response Curve, Response: 919.933
BUBR1; Dose 1.53E-09, Err-Value 0.561265
  Dose Response Curve, Response: 919.392
BUBR1; Dose 1.56E-06, Err-Value 0.465775
  Dose Response Curve, Response: 925.424
BUBR1; Dose 1.95E-07, Err-Value 0.135144
  Dose Response Curve, Response: 920.487
BUBR1; Dose 2.44E-08, Err-Value 0.0972446
  Dose Response Curve, Response: 919.498
BUBR1; Dose 3.05E-09, Err-Value 0.226695
  Dose Response Curve, Response: 919.513
BUBR1; Dose 3.81E-10, Err-Value 0.379307
  Dose Response Curve, Response: 919.141
BUBR1; Dose 3.91E-07, Err-Value 0.144905
  Dose Response Curve, Response: 921.751
BUBR1; Dose 4.88E-08, Err-Value 0.856541
  Dose Response Curve, Response: 920.216
BUBR1; Dose 6.10E-09, Err-Value 0.130907
  Dose Response Curve, Response: 919.306
BUBR1; Dose 7.63E-10, Err-Value 0.475828
  Dose Response Curve, Response: 919.4
BUBR1; Dose 7.81E-07, Err-Value 0.529145
  Dose Response Curve, Response: 922.85
BUBR1; Dose 9.77E-08, Err-Value 0.363098
  Dose Response Curve, Response: 919.824
PTBP1–BUBR1 mRNA 3′-UTR; replicate 1
  PTBP1 enrichment on BUBR1-3'UTR (2-ΔΔCt): 9.032
PTBP1–BUBR1 mRNA 3′-UTR; replicate 2
  PTBP1 enrichment on BUBR1-3'UTR (2-ΔΔCt): 10.1759
PTBP1–BUBR1 mRNA 3′-UTR; replicate 3
  PTBP1 enrichment on BUBR1-3'UTR (2-ΔΔCt): 11.8972
PTBP1–BUBR1 mRNA 3′-UTR; RIP and RNA pulldown, HEK-293T with or without UPCP
  binding of PTBP1 to BUBR1 mRNA 3ʹ-UTR: promoted PTBP1 to bind
[2]; replicate 1
  Relative percentage of the number of abnormal localization cells of BUBR1: 25%
[2]; replicate 2
  Relative percentage of the number of abnormal localization cells of BUBR1: 18%
[2]; replicate 3
  Relative percentage of the number of abnormal localization cells of BUBR1: 27%
[2]; H1299 cells, immunofluorescence
  BUBR1 localization to the kinetochore: correctly localized BUBR1 to the kinetochore
